Results: PubChem BioAssay AID1361 (SRMLSC, 2008)
Active and inactive are the calls of the source. No rule for the calls is given here.

Assay: blockers of mitochondrial fusion, WT vs mutant – cell-based, chemical genetic, wild-type and mutant, confirmation (AID 1361)
Conditions: Cell-based mitochondrial fusion phenotype, imaging
[1] = mutant cells, measured here: mutant cell line IC50

| Structure (SMILES) | IC50 (WT cells) | IC50 [1] [µM] |
| --- | --- | --- |
| O=C(CN1CCCCC1)Nc1ccc(Br)cc1C(=O)c1ccccc1Cl | 12 µM | > 25 |
| COc1ccc(C2=Nc3cccc4cccc(c34)N2)cc1 | > 25 µM (inactive) | > 25 |
| Cc1cc(NC(=O)C2CCCCC2)nc2c1c(=O)oc1ccccc12 | 19.4 µM | 23.8 |
| O=C(c1ccco1)N1CCN(c2c(-c3ccccc3)c3cc(Cl)ccc3[nH]c2=O)CC1 | 13.2 µM | > 25 |
| Cc1c(N(C(=O)Nc2ccccc2)C2=NCC(C)S2)c(=O)n(-c2ccccc2)n1C (stereo not given) | > 25 µM (inactive) | > 25 |
| Cc1ccc(C(=O)/C=C/c2c(C)nn(-c3ccccc3)c2Cl)cc1 | 20.2 µM | > 25 |
| CCOC(=O)c1sc(NC(=O)/C=C/c2cnn(CC)c2C)c(C(=O)OCC)c1C | > 25 µM (inactive) | > 25 |
| CC(=O)c1ccc(-n2nnnc2SCC(=O)Nc2cccc(NC(=O)c3ccco3)c2)cc1 | > 25 µM (inactive) | > 25 |
| O=C(c1ccccn1)N1N=C2/C(=C/c3ccc(F)cc3)CCCC2C1c1ccc(F)cc1 (stereo not given) | 16.1 µM | > 25 |
| COc1ccccc1N1CCN(C(=O)c2ccc(CSc3ccccc3)cc2)CC1 | 15.4 µM | > 25 |
| CC(NC(=S)NCCCN1CCOCC1)C1CC2CCC1C2 (stereo not given) | > 25 µM (inactive) | > 25 |
| CCOc1ccc(NC(=O)C2CC(=O)N(C(C)C)C2)cc1 (stereo not given) | > 25 µM (inactive) | > 25 |
| Cc1ccc(-n2c(-c3ccccc3)cc(/C=N/NC(=O)CC#N)c2-c2ccccc2)cc1 | > 25 µM (inactive) | > 25 |
| CSc1nnc(C2CCNCC2)n1C | > 25 µM (inactive) | > 25 |
| CCOc1ccc(-c2nc(N)ncc2Oc2ccccc2Br)c(O)c1 | > 25 µM (inactive) | > 25 |
| CCOC(=O)N1CCN(S(=O)(=O)c2ccc(C)c(C)c2)CC1 | > 25 µM (inactive) | > 25 |
| CC(=O)N(C)c1ccc(OCC(O)Cn2c3ccc(Cl)cc3c3cc(Cl)ccc32)cc1 (stereo not given) | 4.12 µM | > 25 |
| CN1/C(=C\C(=O)Nc2cccc(Cl)c2)C(C)(C)c2ccccc21 | 9.74 µM | 24.7 |
| O=C(CCc1ccccc1)Nc1ncc2c(n1)CCCC2=O | > 25 µM (inactive) | > 25 |
| CC1(C(=O)N(Cc2ccccc2)Cc2ccccc2)CC1(Br)Br (stereo not given) | 15.7 µM | > 25 |

| Structure (SMILES) | IC50 (WT cells) | IC50 [1] [µM] |
| --- | --- | --- |
| O=c1c2cn[nH]c2nc(SCc2c(F)cccc2F)n1-c1ccc(Cl)cc1 | > 25 µM (inactive) | > 25 |
| Cc1ccccc1NC1=C(Cl)C(=O)N(C2CCCCC2)C1=O | 19.1 µM | > 25 |
| Cc1[nH]c2ccc(F)cc2c1CCN(Cc1ccco1)C(=S)NC(C)(C)C | 12.5 µM | > 25 |
| CC(C)SCc1cc(N2CCCC2)nc(-c2ccccc2)n1 | 23.5 µM | > 25 |
| COC(=O)c1ccc(NCC(=O)c2ccccc2)cc1 | > 25 µM (inactive) | > 25 |
| CCOC(=O)c1ccc2c(c1)n(CC)c(/C=C/N(C)c1ccccc1)[n+]2CC | > 25 µM (inactive) | > 25 |
| O=C(NCc1nnc(SCc2ccc(C(F)(F)F)cc2)n1-c1ccccc1)C12CC3CC(CC(C3)C1)C2 | 18 µM | > 25 |
| Cc1cc(C)cc(NS(=O)(=O)c2ccc(Oc3ncc(C(F)(F)F)cc3Cl)cc2)c1 | 10.9 µM | > 25 |
| Cc1ccc(NC(=S)Nc2ccc(C(C)C)cc2)cc1S(=O)(=O)N1CCCCCC1 | 15 µM | > 25 |
| CCCCCOc1ccc2oc(=O)c3c(c2c1)CCCN3C(=O)CN1CCCC(C(=O)OCC)C1 (stereo not given) | > 25 µM (inactive) | > 25 |
| O=C(COC(=O)c1ccc([N+](=O)[O-])s1)Nc1ncc(C(F)(F)F)cc1Cl | 18.3 µM | > 25 |
| CCOC(=O)c1cc(-c2ccc3c(c2)OCO3)nc2onc(C)c12 | > 25 µM (inactive) | > 25 |
| C/C(=N\NC(=S)NCc1ccccc1)c1ccc2ccccc2c1OC(F)F | 7.44 µM | 25 |
| COc1cc(SC)ccc1C(=O)NCC1CCCO1 (stereo not given) | > 25 µM (inactive) | > 25 |
| Cc1cc(C)n(CC(O)Cn2c3ccc(Cl)cc3c3cc(Cl)ccc32)c(=O)n1 (stereo not given) | 16.6 µM | > 25 |
| Cc1cc(NC(=S)N(Cc2ccc(Cl)cc2)Cc2ccc(C(=O)O)cc2)ccc1Cl | 17.6 µM | > 25 |
| Cc1cc(N=Cc2cc(Cl)ccc2O)no1 | > 25 µM (inactive) | > 25 |
| O=C(Nn1c(C2CCCCC2)nc2ccccc2c1=O)c1ccc(Cl)c([N+](=O)[O-])c1 | 14.8 µM | > 25 |
| CCC(C)c1ccc(NC(=O)COc2c(F)c(F)c(C(F)(F)F)c(F)c2F)cc1 (stereo not given) | 8.03 µM | > 25 |
| CCc1cc(-c2n[nH]c(=S)n2-c2ccccc2C)cs1 | > 25 µM (inactive) | > 25 |

| Structure (SMILES) | IC50 (WT cells) | IC50 [1] [µM] |
| --- | --- | --- |
| CCOC(=O)c1c(-n2c(C)cc(C=C3C(=O)NC(=S)NC3=O)c2C)sc2c1CCCC2 | 7.21 µM | > 25 |
| CC(C)(C)N/N=C1\CC(c2ccccc2)Oc2ccccc21 (stereo not given) | 14.5 µM | > 25 |
| CC[n+]1c(SC)ccc2cc(OC)ccc21 | 11.5 µM | > 25 |
| CCCCCc1nc2sc3c(c2c(=O)n1NC(=O)c1ccc([N+](=O)[O-])cc1)CC(C)(C)OC3 | 15.5 µM | > 25 |
| CS(=O)(=O)N(CC(=O)NCc1ccc2c(c1)OCO2)c1ccc(Cl)cc1 | > 25 µM (inactive) | > 25 |
| CC(C)/C(=N/Nc1ccccc1[N+](=O)[O-])c1ccccc1 | > 25 µM (inactive) | > 25 |
| CC(C)c1ccc(NC(=O)c2sccc2-n2cccc2)cc1 | > 25 µM (inactive) | > 25 |
| CCOC(=O)c1c(C)[nH]c(C(=O)OCC(=O)Nc2cc(Cl)ccc2OC)c1C | > 25 µM (inactive) | > 25 |
| CN(CC(=O)Nc1ccccc1Sc1ccccc1)C1CCCCC1 | 23.2 µM | > 25 |
| COC(=O)c1c(NC(=O)CN2CCC3(O)CCCCC3C2c2ccc(OC)cc2OC)sc(C)c1C (stereo not given) | 14.9 µM | > 25 |
| O=C(CCn1nc(-c2ccccc2)c2ccccc2c1=O)NCC1CCCO1 (stereo not given) | > 25 µM (inactive) | > 25 |
| COC(=O)C1CN(C#N)N(c2ccc(Cl)cc2)C12c1ccccc1-c1ccccc12 (stereo not given) | 2.48 µM | > 25 |
| CC(Oc1ccc(Cl)cc1Cl)C(=O)NCCCCc1ccccc1 (stereo not given) | > 25 µM (inactive) | > 25 |
| Cc1cccc(-n2c(-c3csc4ccccc34)n[nH]c2=S)c1 | > 25 µM (inactive) | > 25 |
| CCCCNC(=S)N(C)/N=C/c1c(F)c(F)c(F)c(F)c1F | > 25 µM (inactive) | > 25 |
| COc1cccc(C2Nc3c(F)cc(Br)cc3C3C=CCC32)c1OC (stereo not given) | 14.9 µM | > 25 |
| CC(C)(C)c1ccc(S(=O)(=O)Nc2ccc(Cc3ccncc3)cc2)cc1 | 23.3 µM | > 25 |
| Cc1ccc(/C=C/C(=O)N2CCC(Cc3ccccc3)CC2)cc1 | 15.1 µM | > 25 |
| C=CCn1c(SCC(=O)Nc2cccc(C(=O)OC)c2)nnc1C(C)NC(=O)c1cccs1 (stereo not given) | > 25 µM (inactive) | > 25 |
| CSc1ccc(Cl)c(C(=O)NCCOc2cc(C)ccc2C(C)C)c1 | 12.9 µM | > 25 |
